Measurements reported in patent US20150004110A1, “NOVEL ANTI-AGING AND DEPIGMENTING COSMETIC COMPOSITIONS” (DIVERCHIM, priority 2011, published 2015).

Tested on: skin explants (abdominoplasty)
Assay: Histological assessment of the general morphology of skin explants maintained in survival
Assay type: cell-based, human
Conditions: 2 μg/mL in DMSO, after 9 days of survival
Procedure: 1. Preparation of the explants • During abdominoplasty of a person, 45 skin explants were prepared. The explants were put in BEM medium (BIO-EC's Explants Medium) for survival at 37° C. in humid atmosphere, enriched with 5% CO2.
2. Application of the products • The solutions are prepared in DMSO from pure products, in order to obtain final concentrations of […] by incorporating an identical volume of 10 μl in each well and for each treatment. The treatment was carried out in the survival medium on days 0, 1, 2, 5 and 7.
3. Taking samples • On D0, the 3 explants of batch TO were taken and each explant was cut in two. One part was fixed in buffered formol for observation of the general morphology. The other was frozen and stored at −80° C. • On D5 and D9, 3 explants from each batch were taken and treated in the same way.
4. […]
5. Microscopic observations • The microscopic observations were carried out by light microscopy and fluorescence microscopy, using a Orthoplan-type Leica microscope, with ×25 objective. The images were recorded with a Sony DXC 390P tri CCD camera and stored using the Leica IM1000 data archiving software. • The general morphology was observed on sections in paraffin after staining with Masson trichrome, Goldner variant according to procedure MO-H-157. […]

`C[C@]12CC[C@H](O)CC1=CC[C@@H]1[C@@H]2CC[C@]2(C)C(=O)CC[C@@H]12` [(+)-dehydroisoandrosterone, reference compound] was tested, and the “General morphology: epidermal structure and papillary dermis” value was “does not alter the epidermal structure or the papillary dermis”.
